Experimental data: patent US20230203017A1, “Protein Kinase C Beta Inhibitors and Uses Thereof” (priority 2021, published 2023)
Entries after “also recorded” stand apart in the source; their conditions may differ. Structures can show the parent of a compound that is named as a salt.

What was measured:
Recombinant PKCβ = Recombinant PKCβ (Homo sapiens, UniProt P05771); experiment: PKCb assay: phosphorylation of Histone H3 (Ser10) by recombinant PKCβ, immunoblot, no lipid activator; type: biochemical; conditions: basal PKCb, lipid activator not included; P-Ser10-Histone H3 by immunoblotting, 30° C., 6 minutes
Sequence of Recombinant PKCβ (P05771 whole entry, species assumed): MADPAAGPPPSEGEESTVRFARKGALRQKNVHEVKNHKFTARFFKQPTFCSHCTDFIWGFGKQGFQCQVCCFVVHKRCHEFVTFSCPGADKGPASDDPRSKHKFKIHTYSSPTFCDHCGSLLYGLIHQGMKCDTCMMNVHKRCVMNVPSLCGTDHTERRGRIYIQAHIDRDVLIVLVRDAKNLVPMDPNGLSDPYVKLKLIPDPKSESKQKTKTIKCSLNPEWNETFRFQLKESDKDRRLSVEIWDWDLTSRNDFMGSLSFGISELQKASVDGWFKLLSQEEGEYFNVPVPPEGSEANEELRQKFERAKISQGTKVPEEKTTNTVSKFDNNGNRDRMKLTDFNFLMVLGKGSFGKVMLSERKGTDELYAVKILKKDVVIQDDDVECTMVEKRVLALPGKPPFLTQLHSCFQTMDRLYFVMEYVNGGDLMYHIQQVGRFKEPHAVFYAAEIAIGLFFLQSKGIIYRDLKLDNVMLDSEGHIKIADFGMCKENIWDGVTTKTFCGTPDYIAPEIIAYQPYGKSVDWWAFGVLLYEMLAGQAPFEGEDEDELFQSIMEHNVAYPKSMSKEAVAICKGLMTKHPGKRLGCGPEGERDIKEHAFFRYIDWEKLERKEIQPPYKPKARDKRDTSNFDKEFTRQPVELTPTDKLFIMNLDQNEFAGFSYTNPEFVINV
Protocol: Recombinant PKCβ (11ng) was mixed with purified Histone H3 (20 ng) and incubated at 30° C. for 6 minutes and phosphorylated Histone H3 (P^ser10-Histone H3) assessed by immunoblotting using specific antibodies (FIG. 11). Lipid activator was not included our assay because we were interested in finding chemicals inhibiting PKCb in its basal state.

[1] = tested on: C57BL6 mouse model fed HFD or HFHC diet; experiment: Efficacy of PKCβ inhibitors on diet-induced obesity and hepatic steatosis in C57BL6 mice; type: in vivo; conditions: for liver TG levels: diet-fed mice (FIGS. 12H, 12I); for weight gain, intraperitoneal administration / weight gain, oral administration: mice on high fat diet; for weight gain, intraperitoneal administration: i.p. (FIG. 12C); for weight gain, oral administration: oral gavage (FIG. 12D)
Protocol: FIG. 12E compares food intake in mice fed HFD for and the indicated PKCb inhibitor was administered by i.p. FIG. 12F compares food intake in mice fed HFD and the indicated PKCb inhibitor was administered orally by gavage.
To test and compare therapeutic efficacy of these inhibitors, the following experiment was set up in a C57BL6 mouse model (20 animals per study). C57BL6 mice (7 week old male mice) were fed either HFD or HFHC diet and were either untreated or treated on the same day with an indicated PKCb inhibitor. The PKCb inhibitor was administered to these mice either by i.p. or oral gavage.
The inhibitors were administered by i.p. (FIG. 12C) or gavage (FIG. 12D).

[2] = tested on: PKCβ activation of SREBP-1c; experiment: SREBP-1c transactivation, Gal4-luciferase reporter with constitutively active PKCβ in HepG2 cells; type: cell-based, human; conditions: LY333,531 5 μM, PD98059 20 μM, GSK690693 1 μM
Protocol: (Gal4)5-luciferase reporter plasmid (0.6 μg) was co-transfected with a plasmid encoding either Gal4-DNA binding region (Gal4-DBD) or activation domain of SREBP-1 c linked to Gal4-DNA binding domain (Gal4-DBD-SREBP-1AD) (0.3 μg) (23) and pCMV-8-galactosidase (0.1 μg), along with constitutively active PKCβ cDNA (0.1 μg), in human hepatoma HepG2 cells in the absence or presence of LY333,531 (5 μM), PD98059 (20 μM) or GSK690693 (1 μM). Fold induction represens luciferase activity on PKCβ transfection relative to basal expression level in the absence of PKCβ expression vector (taken as 1). Luciferase activity was normalized to β-galactosidase activity.
To determine whether PKCβ deficiency affected the activation of hepatic SREBP-1c, a plasmid was used in which activation domain of SREBP-1c is fused to the Gal4-DBD and evaluated the activation of a Gal4-responsive reporter plasmid by overexpressed PKCβ in the absence or presence of indicated inhibitor.

SMILES	IC50 (Recombinant PKCβ) [µM]	liver TG levels [1]	weight gain, intraperitoneal administration [1]	weight gain, oral administration [1]	diet-induced obesity ([1]; mice (FIG. 12G))	activation of SREBP-1c plasmid by overexpressed PKCβ in presence of inhibitor [2]
N#CCCCCCn1cc(C2=C(c3cn(CCCCCC#N)c4ccccc34)C(=O)NC2=O)c2ccccc21 [INST3399]	0.05	reduces liver TG levels	reduction in weight gain	caused an increase in weight gain; also recorded: greater weight gain relative to LY333531		
Cn1cc(-c2c(-c3c[nH]c4ccccc34)[nH][nH]c2=O)c2ccccc21 [INST5660]	0.01	reducing diet-induced liver triglyceride level			reducing diet-induced obesity	
CN(C)C[C@@H]1CCn2cc(c3ccccc32)C2=C(C(=O)NC2=O)c2cn(c3ccccc23)CCO1 [LY333531, Ruboxistaurin hydrochloride, reference compound]			reduction in weight gain	caused an increase in weight gain		this activation was blocked
